# Measured values as given in patent publication US11339156B2, “3-(1H-pyrazol-4-yl)pyridine allosteric modulators of the M4 muscarinic acetylcholine receptor” (Merck Sharp & Dohme Corp., priority 2017, dated 2022).
# Biological target: T1, human M4 muscarinic acetylcholine receptor (Homo sapiens, UniProt P08173)
# T1 construct: expressed in transfected cells
# T1 sequence (P08173 1-479): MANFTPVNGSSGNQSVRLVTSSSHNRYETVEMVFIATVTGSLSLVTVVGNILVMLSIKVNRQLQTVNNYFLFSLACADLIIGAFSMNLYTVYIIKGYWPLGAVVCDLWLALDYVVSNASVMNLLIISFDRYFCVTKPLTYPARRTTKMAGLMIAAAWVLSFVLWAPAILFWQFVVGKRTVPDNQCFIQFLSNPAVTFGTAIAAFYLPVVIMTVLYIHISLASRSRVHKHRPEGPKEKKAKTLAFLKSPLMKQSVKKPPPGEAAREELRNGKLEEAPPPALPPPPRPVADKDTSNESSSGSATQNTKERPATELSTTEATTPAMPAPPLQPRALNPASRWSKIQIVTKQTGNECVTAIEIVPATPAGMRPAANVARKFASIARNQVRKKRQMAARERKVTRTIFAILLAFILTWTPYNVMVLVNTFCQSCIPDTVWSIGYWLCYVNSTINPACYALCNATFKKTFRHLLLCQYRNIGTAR
# Assay: human FLIPR-based M4 PAM assay (CHO-K1 cells with human M4 receptor and Gαqi5, calcium dye fluorescence)
# Format: cell-based
# Conditions: inflection point of 4 parameter logistic fit; acetylcholine added at 20% of maximum response; read-out: M4PAM IP
# Method: In a typical experiment the M4 muscarinic acetylcholine receptor modulating activity of the compounds of the present invention was determined in accordance with the following experimental method. CHO-K1 cells stably transfected with human M4 receptor and chimeric G-protein Gαqi5 (Coward P, et al., Analytical Biochemistry, 270:242-248 (1999)) are thawed from liquid N2 storage, resuspended in growth medium, plated in black, clear bottom 384 well plates, and incubated 16-20 hours at 37° C., 5% CO2. On the day of assay, growth medium is removed, the cells are washed 2 times with wash buffer, and cells are incubated in dye loading buffer at 37° C., 5% CO2 for ˜1 hour. Following dye loading the cell plates are placed in a FLIPR Tetra instrument and while monitoring dye fluorescence (excitation […]), 10 uL of test substance at increasing concentrations is added, and fluorescence values are recorded for 4 min. Next, 10 uL of acetylcholine is added (final concentration calculated so as to achieve 20% of the maximum acetycholine response), and the fluorescence reading is continued for 3.5 min. In some cases, a third addition of acetylcholine (final concentration calculated to achieve 70% of the maximal acetylcholine response) is performed. The resulting dose response curves are fit to a 4 parameter logistic equation and the final result is determined as the inflection point (IP) of the curve
# CHO-K1 cells stably transfected with human M4 receptor and chimeric G-protein Gαqi5 are thawed from liquid N2 storage, resuspended in growth medium, plated in black, clear bottom 384 well plates, and incubated 16-20 hours at 37° C., 5% CO2.
# On the day of assay, growth medium is removed, the cells are washed 2 times with wash buffer, and cells are incubated in dye loading buffer at 37° C., 5% CO2 for ˜1 h. Following dye loading the cell plates are placed in a FLIPR Tetra instrument and while monitoring dye fluorescence ([…]), 10 uL of test substance at increasing concentrations is added, and fluorescence values are recorded for 4 min. Next, 10 uL of acetylcholine is added (final concentration calculated so as to achieve 20% of the maximum acetycholine response), and the fluorescence reading is continued for 3.5 min. In some cases, a third addition of acetylcholine (final concentration calculated to achieve 70% of the maximal acetylcholine response) is performed.
row,EC50 [nM],SMILES
1,25.5,Cc1ccc(-c2cnn(CC(C)(C)C(F)(F)F)c2)c(-c2ccn3ccnc3c2)n1 [Example 26]
2,74,"Cc1nc2cc(-c3nc(C#N)ccc3-c3cnn(CCC(C)(F)F)c3)ccc2n1C [Example 27, 5-[1-(3,3-difluorobutyl)-1H-pyrazol-4-yl]-6-(1,2-dimethyl-1H-benzimidazol-5-yl)pyridine-2-carbonitrile]"
3,67.4,"Cc1nc2cc(-c3nc(C#N)ccc3-c3cnn(CC(C)(C)C(C)(F)F)c3)ccc2n1C [Example 28, 5-[1-(3,3-difluoro-2,2-dimethylbutyl)-1H-pyrazol-4-yl]-6-(1,2-dimethyl-1H-benzimidazol-5-yl)pyridine-2-carbonitrile]"
4,96.9,"Cc1cn2ccc(-c3nc(C#N)ccc3-c3cnn(CCC(F)(F)C(F)(F)F)c3)cc2n1 [Example 29, 6-(2-methylimidazo[1,2-a]pyridin-7-yl)-5-[1-(3,3,4,4,4-pentafluorobutyl)-1H-pyrazol-4-yl]pyridine-2-carbonitrile]"
5,102,"Cc1nc2cc(-c3nc(C#N)ccc3-c3cnn(CCC(F)(F)C(F)F)c3)ccc2n1C [Example 30, 6-(1,2-dimethyl-1H-benzimidazol-5-yl)-5-[1-(3,3,4,4-tetrafluorobutyl)-1H-pyrazol-4-yl]pyridine-2-carbonitrile]"
6,163,"Cc1nc2cc(-c3nc(C#N)ccc3-c3cnn(CC(C)(F)F)c3)ccc2n1C [Example 31, 5-[1-(2,2-difluoropropyl)-1H-pyrazol-4-yl]-6-(1,2-dimethyl-1H-benzimidazol-5-yl)pyridine-2-carbonitrile]"
7,81.9,"Cc1nc2cc(-c3nc(C#N)ccc3-c3cnn(CC(F)C(C)(F)F)c3)ccc2n1C (stereo not drawn) [Example 32, 6-(1,2-dimethyl-1H-benzimidazol-5-yl)-5-[1-(2,3,3-trifluorobutyl)-1H-pyrazol-4-yl]pyridine-2-carbonitrile]"
8,51,"Cc1nc2cc(-c3nc(C#N)ccc3-c3cnn(CC(C)(F)C(C)(F)F)c3)ccc2n1C (stereo not drawn) [Example 33, 6-(1,2-dimethyl-1H-benzimidazol-5-yl)-5-[1-(2,3,3-trifluoro-2-methylbutyl)-1H-pyrazol-4-yl]pyridine-2-carbonitrile]"
9,54.2,"Cc1nc2cc(-c3nc(C#N)ccc3-c3cnn(CC(C)(C)CC(F)F)c3)ccc2n1C [Example 34, 5-[1-(4,4-difluoro-2,2-dimethylbutyl)-1H-pyrazol-4-yl]-6-(1,2-dimethyl-1H-benzimidazol-5-yl)pyridine-2-carbonitrile]"
10,108,"Cc1cn2ccc(-c3nc(C#N)ccc3-c3cnn(CC4(CC(C)C)CC4)c3)cc2n1 [Example 35, 6-(2-methylimidazo[1,2-a]pyridin-7-yl)-5-(1-{[1-(2-methylpropyl)cyclo-propyl]methyl}-1H-pyrazol-4-yl)pyridine-2-carbonitrile]"
11,37.4,"CC(C)C1(Cn2cc(-c3ccc(C#N)nc3-c3ccn4ccnc4c3)cn2)CC1 [Example 36, 6-imidazo[1,2-a]pyridin-7-yl-5-(1-{[1-(1-methylethyl)cyclo-propyl]methyl}-1H-pyrazol-4-yl)pyridine-2-carbonitrile]"
12,14.5,"CCC1(Cn2cc(-c3ccc(C#N)nc3-c3ccn4ccnc4c3)cn2)CC1 [Example 37, 5-{1-[(1-ethylcyclopropyl)methyl]-1H-pyrazol-4-yl}-6-imidazo[1,2-a]pyridin-7-ylpyridine-2-carbonitrile]"
13,165,"Cn1cnc2cc(-c3nc(C#N)ccc3-c3cnn(CC4(C)CCOCC4)c3)ccc21 [Example 38, 6-(1-methyl-1H-benzimidazol-5-yl)-5-{1-[(4-methyltetrahydro-2H-pyran-4-yl)methyl]-1H-pyrazol-4-yl}pyridine-2-carbonitrile]"
14,75.8,"Cc1cn2ncc(-c3nc(C#N)ccc3-c3cnn(CC(C)(C)C(F)(F)F)c3)cc2n1 [Example 39, 6-(2-methylimidazo[1,2-b]pyridazin-7-yl)-5-[1-(3,3,3-trifluoro-2,2-dimethylpropyl)-1H-pyrazol-4-yl]pyridine-2-carbonitrile]"
15,141,"Cc1cn2ccc(-c3nc(C#N)ccc3-c3cnn(CCC(F)(F)F)c3)cc2n1 [Example 40, 6-(2-methylimidazo[1,2-a]pyridin-7-yl)-5-[1-(3,3,3-trifluoropropyl)-1H-pyrazol-4-yl]pyridine-2-carbonitrile]"
16,62.2,"Cc1cn2ccc(-c3nc(C#N)ccc3-c3cnn(CC(F)C(F)(F)F)c3)cc2n1 (stereo not drawn) [Example 41, 6-(2-methylimidazo[1,2-a]pyridin-7-yl)-5-[1-(2,3,3,3-tetrafluoropropyl)-1H-pyrazol-4-yl]pyridine-2-carbonitrile]"
17,151,"N#Cc1ccc(-c2cnn(CC(F)(F)C(F)(F)F)c2)c(-c2ccn3ccnc3c2)n1 [Example 42, 6-imidazo[1,2-a]pyridin-7-yl-5-[1-(2,2,3,3,3-pentafluoropropyl)-1H-pyrazol-4-yl]pyridine-2-carbonitrile]"
18,88.3,"Cc1cn2ccc(-c3nc(C#N)ccc3-c3cnn(CCC(O)C(F)(F)F)c3)cc2n1 (stereo not drawn) [Example 43, 6-(2-methylimidazo[1,2-a]pyridin-7-yl)-5-[1-(4,4,4-trifluoro-3-hydroxybutyl)-1H-pyrazol-4-yl]pyridine-2-carbonitrile]"
19,28.4,"CC(C)(Cn1cc(-c2ccc(C#N)nc2-c2ccn3ccnc3c2)cn1)C(F)(F)F [Example 44, 6-(imidazo[1,2-a]pyridin-7-yl)-5-(1-(3,3,3-trifluoro-2,2-dimethylpropyl)-1H-pyrazol-4-yl)picolinonitrile]"
20,35.6,"N#Cc1ccc(-c2cnn(CCC3CC3)c2)c(-c2ccn3ccnc3c2)n1 [Example 45, 5-[1-(2-cyclopropylethyl)-1H-pyrazol-4-yl]-6-imidazo[1,2-a]pyridin-7-ylpyridine-2-carbonitrile]"
21,242,"CC(C)(C#N)Cn1cc(-c2ccc(C#N)nc2-c2ccn3ccnc3c2)cn1 [Example 46, 5-[1-(2-cyano-2-methylpropyl)-1H-pyrazol-4-yl]-6-imidazo[1,2-a]pyridin-7-ylpyridine-2-carbonitrile]"
22,29.7,"CC(C)(C)Cn1cc(-c2ccc(C#N)nc2-c2ccn3ccnc3c2)cn1 [Example 48, 5-[1-(2,2-dimethylpropyl)-1H-pyrazol-4-yl]-6-imidazo[1,2-a]pyridin-7-ylpyridine-2-carbonitrile]"
23,174,"Cc1cn2ccc(-c3nc(C#N)ccc3-c3cnn(CCC(C)(C)C#N)c3)cc2n1 [Example 49, 5-[1-(3-cyano-3-methylbutyl)-1H-pyrazol-4-yl]-6-(2-methylimidazo[1,2-a]pyridin-7-yl)pyridine-2-carbonitrile]"
24,51.2,"CN1Cc2ccc(-c3nc(C#N)ccc3-c3cnn(CC4(C)CC4)c3)cc2C1=O [Example 50, 5-{1-[(1-methylcyclopropyl)methyl]-1H-pyrazol-4-yl}-6-(2-methyl-3-oxo-2,3-dihydro-1H-isoindol-5-yl)pyridine-2-carbonitrile]"
25,54.6,"N#Cc1ccc(-c2cnn(CC3CC34CC4)c2)c(-c2ccn3ccnc3c2)n1 (stereo not drawn) [Example 51, 6-imidazo[1,2-a]pyridin-7-yl-5-[1-(spiro[2.2]pent-1-ylmethyl)-1H-pyrazol-4-yl]pyridine-2-carbonitrile]"
26,20.7,"CN1Cc2ccc(-c3nc(C#N)ccc3-c3cnn(CC4(C(F)(F)F)CC4)c3)cc2C1=O [Example 52, 6-(2-methyl-3-oxoisoindolin-5-yl)-5-(1-((1-(trifluoromethyl)cyclopropyl)methyl)-1H-pyrazol-4-yl)picolinonitrile]"
27,234,"Fc1cc(-c2cnn(CC3(C(F)(F)F)CC3)c2)c(-c2ccn3ccnc3c2)nc1F [Example 53, 7-(5,6-difluoro-3-(1-((1-(trifluoromethyl)cyclopropyl)methyl)-1H-pyrazol-4-yl)pyridin-2-yl)imidazo[1,2-a]pyridine]"
